Results as given in ChEMBL document CHEMBL4196010, “New hydrazides derivatives of isoniazid against Mycobacterium tuberculosis: Higher potency and lower hepatocytotoxicity” (Eur J Med Chem, 2018).
≈ marks a conversion by molar mass, not a printed value.

Key:
Format in all cases: functional
[1] = tested on: Mycobacterium tuberculosis; assay: Antitubercular activity against wild-type isoniazid-resistant Mycobacterium tuberculosis harboring katG mutant after 5 days by microplate alamar blue assay
[2] = tested on: Mycobacterium tuberculosis; assay: Antitubercular activity against Mycobacterium tuberculosis SR 2571/0215 harboring katG mutant after 5 days by microplate alamar blue assay
[3] = tested on: Mycobacterium tuberculosis; assay: Antitubercular activity against isoniazid and rifampicin-resistant Mycobacterium tuberculosis T113/09 harboring katG and rpoB mutant after 5 days by microplate alamar blue assay

| Structure (SMILES) | MIC [1] [µM] | MIC [2] [µM] | MIC [3] [µM] |
| --- | --- | --- | --- |
| CC(=O)Nc1ccc(Cl)cc1C(F)(F)C(=O)NNC(=O)c1ccncc1 | 136.6 (≈ 52.3 µg/mL) |  |  |
| CC(=O)Nc1ccccc1C(=O)C(=O)NNC(=O)c1ccncc1 | 19.2 (≈ 6.27 µg/mL) | 38.3 (≈ 12.5 µg/mL) | 38.3 (≈ 12.5 µg/mL) |
| CC(=O)Nc1ccccc1C(F)(F)C(=O)NNC(=O)c1ccncc1 | 143.7 (≈ 50.1 µg/mL) | 287.4 (≈ 100 µg/mL) | 287.4 (≈ 100 µg/mL) |
| CC(=O)Nc1ccc(F)cc1C(F)(F)C(=O)NNC(=O)c1ccncc1 | 130.9 (≈ 47.9 µg/mL) |  |  |
| O=C(CCl)Nc1ccccc1C(=O)C(=O)NNC(=O)c1ccncc1 |  | 69.4 (≈ 25 µg/mL) | 34.7 (≈ 12.5 µg/mL) |
| CC(=O)Nc1ccc(C)cc1C(F)(F)C(=O)NNC(=O)c1ccncc1 | 138.1 (≈ 50 µg/mL) | >276.2 | 276.2 (≈ 100 µg/mL) |
| CC(=O)Nc1ccc(C)cc1C(=O)C(=O)NNC(=O)c1ccncc1 |  | 36.7 (≈ 12.5 µg/mL) | 36.7 (≈ 12.5 µg/mL) |
| NNC(=O)c1ccncc1 [ISONIAZID] | >80 | 116.8 (≈ 16 µg/mL) | 58.4 (≈ 8.01 µg/mL) |
